Where a name gives a salt, the structure may show the parent alone. Read-outs that look alike come from different tables or passages of the source.
Columns and labels:
[1] = test system: SK-MES-1 squamous lung cell carcinoma cell; experiment: Crystal violet microtiter assay, Pivanex then cytotoxic drug, SK-MES-1; format: cell-based; details: Pivanex 0 μM
Experimental: (§1) T24 Bladder transitional carcinoma cells, Calu-6 anaplastic lung carcinoma cells, and SK-MES-1 squamous lung cell carcinoma cell cultures were purchased from the American Type Culture Collection (Manassas, Va.). All cell lines were cultured in RPMI-1640 with 10% fetal calf serum. For culture in microtiter dishes, cells were plated at a density of 10^4 cells/well and incubated at 37° C., 5% CO2 overnight.
(§2) After overnight incubation, drugs were added to wells in quadruplicate and incubated for 6 to 96 hours in the presence or absence of the oxyalkylene containing compound. […] the media was removed, fresh media were added with cytotoxic drug, and the cultures were incubated for another 6 hours.
(§3) The wells were then washed and medium without drug was added to each well. Microtiter plates were subsequently incubated for an additional 3 days before cell density was determined by a Crystal Violet Assay. Some cultures were alternatively fixed in methanol and stained with hematoxylin and eosin (H&E) stain for 5 minutes prior to microphotography.
(§4) PIVANEX (pivaloyloxymethyl butyrate) was obtained from Titan Pharmaceuticals Inc. (South San Francisco, Calif.) and was admixed with 0.05% Intralipid™ (Fresenius Kabi, Clayton, N.C.) prior to addition to culture media. The cytotoxic drugs gemcitabine (Gemzar; Eli Lilly and Co., Indianapolis, Ind.), cisplatin (Platinol, Bristol-Myers Squibb Co., Princeton, N.J.), paclitaxel (Taxol; Bristol-Myers Squibb Co., Princeton, N.J.), and docetaxel (Taxotere, Aventis Pharmaceuticals Products, Inc., Bridgewater, N.J.) were studied with PIVANEX.
(§5) Cells in microtiter wells were rinsed with PBS and fixed in two volumes of 100% cold methanol for 5 minutes. One volume of 0.5% crystal violet in 20% methanol was added and the attached cells stained for 10 minutes. The cells were then washed and crystal violet was eluted with 0.1 N sodium citrate buffer and read on an ELISA plate reader at 490 nm.

[2] = test system: T24 Bladder transitional carcinoma cells; experiment: Crystal violet microtiter assay, Pivanex then cytotoxic drug, T24; format: cell-based, human; details: Pivanex 0 μM
Experimental: as §1, §2, §3, §4, §5

[3] = test system: Calu-6 anaplastic lung carcinoma cells; experiment: Crystal violet microtiter assay, Pivanex then cytotoxic drug, Calu-6; format: cell-based; details: Pivanex 0 μM
Experimental: as §1, §2, §3, §4, §5

[4] = test system: H23 (NCI-H23) NSCLC cell line; experiment: MTS growth inhibition assay, sequencing of Pivanex and docetaxel, H23; format: cell-based, human; details: after 24 hour exposure
H522 NSCLC cell line = experiment: MTS growth inhibition assay, sequencing of Pivanex and docetaxel, H522; format: cell-based, human; details: after 24 hour exposure
Experimental: Human Non-Small Cell Lung Carcinoma Cell Lines, H522 and NCI-H23, were evaluated for growth inhibitory activity of Pivanex, alone and in combination with the standard chemotherapeutic agent, docetaxel. Cells were treated for three days with Pivanex followed by 24 hours of exposure to docetaxel or the cells were treated for 24 hours with docetaxel followed by three days of exposure to Pivanex. The cell growth inhibition was judged at the end of the 4-day experiments by a standard staining technique using MTS tetrazolium vital stain. […]
Exponentially growing cells were harvested with trypsin (0.05%)/EDTA (0.02%) and re-suspended in fresh medium containing 10% FBS. […] Absorbance was documented on a Dynex HD microplate reader at a wavelength of 490 nm. IC50 values were determined by using the Prism® GraphPad software from 3 different tests, each of which involved 4 replicates for each dose determination. The data are presented as percent growth inhibition, where 0% represents the mean value in wells to which only vehicle (0.1% DMSO) was added and was calculated as follows: % Growth Inhibition=(1−(ODtest/ODvehicle))×100 where ODtest is the optical density of the tested sample, OD vehicle is the optical density of the vehicle in which each respected drug is dissolved. […]

[5] = test system: refractory acute myelogenous leukemia in relapse; details: child, 0.5 g/kg/day; cited from earlier work
[6] = test system: leukemic cells isolated from myelogenous leukemic patients; details: in vitro
[7] = cited from earlier work

## N.N.[Cl][Pt][Cl] [Cisplatin, cisplatin, reference compound]
[1]; cisplatin 10 μM
  SK-MES-1 non-small cancer cell viability (A^490 Absorbance): 1.562
[1]; cisplatin 20 μM
  SK-MES-1 non-small cancer cell viability (A^490 Absorbance): 1.477
[2]; cisplatin 5 μM
  T24 cancer cell viability (A^490 Absorbance): 0.434
[2]; cisplatin 10 μM
  T24 cancer cell viability (A^490 Absorbance): 0.404
[2]; cisplatin 20 μM
  T24 cancer cell viability (A^490 Absorbance): 0.25
[2]; cisplatin […]
  T24 cancer cell viability (A^490 Absorbance): 0.486
[3]; cisplatin 5 μM
  Calu-6 cancer cell viability (A^490 Absorbance): 0.557
[3]; cisplatin 10 μM
  Calu-6 cancer cell viability (A^490 Absorbance): 0.328
[3]; cisplatin 20 μM
  Calu-6 cancer cell viability (A^490 Absorbance): 0.238
[3]; cisplatin […]
  Calu-6 cancer cell viability (A^490 Absorbance): 0.608

## CC(=O)O[C@@]12CO[C@@H]1C[C@H](O)[C@@]1(C)C(=O)[C@H](O)C3=C(C)[C@@H](OC(=O)[C@H](O)[C@@H](NC(=O)OC(C)(C)C)c4ccccc4)C[C@@](O)([C@@H](OC(=O)c4ccccc4)[C@H]21)C3(C)C [Docetaxel, docetaxel]
[4]
  cell growth with agent alone: steep increase in H23 cell growth
H522 NSCLC cell line
  cell growth with agent alone: steep increase in H522 cell growth
[3]; docetaxel 25 nM
  Calu-6 cancer cell viability (A^490 Absorbance): 0.219
[3]; docetaxel 50 nM
  Calu-6 cancer cell viability (A^490 Absorbance): 0.183
[3]; docetaxel 100 nM
  Calu-6 cancer cell viability (A^490 Absorbance): 0.174
[3]; docetaxel 200 nM
  Calu-6 cancer cell viability (A^490 Absorbance): 0.148

## Nc1ccn([C@@H]2O[C@H](CO)[C@@H](O)C2(F)F)c(=O)n1 [Gemcitabine, gemcitabine]
[2]; gemcitabine 10 nM
  T24 cancer cell viability (A^490 Absorbance): 0.48
[2]; gemcitabine 50 nM
  T24 cancer cell viability (A^490 Absorbance): 0.422
[3]; gemcitabine 25 nM
  Calu-6 cancer cell viability (A^490 Absorbance): 0.587
[3]; gemcitabine 50 nM
  Calu-6 cancer cell viability (A^490 Absorbance): 0.466
[3]; gemcitabine 100 nM
  Calu-6 cancer cell viability (A^490 Absorbance): 0.456
[3]; gemcitabine 200 nM
  Calu-6 cancer cell viability (A^490 Absorbance): 0.403

## CC(=O)O[C@H]1C(=O)[C@@]2(C)[C@H]([C@H](OC(=O)c3ccccc3)[C@]3(O)C[C@H](OC(=O)[C@H](O)[C@@H](NC(=O)c4ccccc4)c4ccccc4)C(C)=C1C3(C)C)[C@]1(OC(C)=O)CO[C@@H]1C[C@@H]2O [Paclitaxel, paclitaxel, reference compound]
[1]; paclitaxel 25 μM
  SK-MES-1 cancer cell viability (A^490 Absorbance): 0.655
[1]; paclitaxel 50 μM
  SK-MES-1 cancer cell viability (A^490 Absorbance): 0.627
[1]; paclitaxel 100 μM
  SK-MES-1 cancer cell viability (A^490 Absorbance): 0.42

## CCCC(=O)O [butyric acid/salts, butyric acid]
[5]
  clinical response: partial and temporary remission
[6]
  cytotoxic and cytodifferentiating potency compared with retinoic acid, 1, 25-dihydroxy vitamin D and cytosine arabinoside: most potent cytotoxic and cytodifferentiating agent
[7]; child with refractory acute myelogenous leukemia in relapse, 0.5 g/kg/day
  toxicity: without detectable toxic effects
[7]; clinical trials with high dosages
  toxicity: no toxicity
[7]; patient with acute myelogenous leukemia in relapse, 1.0 g/kg/day for 10 days and 1.5 g/kg/day for 6 days
  adverse reaction in clinical follow up: no adverse reaction
[7]; patients with neuroblastoma, doses of up to 10 g/day
  toxicity: no clinically detectable toxicity

Source: patent publication US20060089410A1, “Combination of chemotherapeutic drugs for increasing antitumor activity” (Titan Pharmaceuticals, Inc., priority 2002, published 2006)
